Conditions: Liquid; for mass density: Pycnometric method; for viscosity: Capillary tube (Ostwald / Ubbelohde) method; for thermal conductivity: Hot wire method

CCCCCCCC(=O)O [octanoic acid]
101.33 kPa
Conditions	mass density [kg/m3]	thermal conductivity [W/m/K]	viscosity [mPa·s]
290.3 K	910.3	–	–
293.3 K	–	–	5.86
297.2 K	–	0.147	–
308 K	898.2	–	3.98
322.3 K	–	0.142	–
323.1 K	885.9	–	2.88
338.1 K	873.8	–	2.17
352.8 K	–	0.136	–
353.1 K	861.8	–	1.69
367.8 K	849.7	–	1.36
383.1 K	837.2	–	1.11
387.6 K	–	0.13	–
398.1 K	824.6	–	0.92
411.3 K	–	0.124	–
412.9 K	812.3	–	0.78
427.7 K	799.2	–	0.67
442 K	–	0.118	–
471.7 K	–	0.112	–

CCCCCCCCCCCCCC(=O)O [tetradecanoic acid]
101.33 kPa
Conditions	mass density [kg/m3]	thermal conductivity [W/m/K]	viscosity [mPa·s]
332.1 K	861.3	–	7.77
334.4 K	–	0.158	–
349 K	–	0.155	–
352.1 K	846.9	–	4.88
368.2 K	835.6	–	3.53
374.1 K	–	0.149	–
388.2 K	821.4	–	2.48
397.7 K	–	0.144	–
408.2 K	806.7	–	1.79
422.3 K	–	0.139	–
427.9 K	791.7	–	1.35
442.2 K	–	–	1.13
443.2 K	780.9	–	–
447.3 K	–	0.133	–
457.2 K	–	–	0.95
458.2 K	769.3	–	–
471.9 K	–	0.127	–
472.2 K	–	–	0.81
473.2 K	758	–	–

CCCCCCCCCCCC(=O)O [dodecanoic acid]
101.33 kPa
Conditions	mass density [kg/m3]	thermal conductivity [W/m/K]	viscosity [mPa·s]
322.1 K	872.4	–	7.21
324.6 K	–	0.156	–
332.1 K	864.6	–	5.62
348.7 K	–	0.151	–
352.1 K	849.9	–	3.7
368.2 K	838.9	–	2.69
373.8 K	–	0.145	–
388.4 K	824.1	–	1.97
398.4 K	–	0.14	–
408.1 K	809.3	–	1.47
422 K	–	0.134	–
428.1 K	794.4	–	1.11
442.2 K	783.5	–	0.95
447.5 K	–	0.129	–
457.2 K	770.2	–	0.8
467.2 K	762	–	0.72
472.7 K	–	0.123	–

CCCCC(=O)O [pentanoic acid]
Conditions	mass density [kg/m3]	thermal conductivity [W/m/K]	viscosity [mPa·s]
293.4 K	939.7	–	2.19
296.1 K	–	0.141	–
312.1 K	922.3	–	1.56
324.1 K	–	0.136	–
332.1 K	904.1	–	1.17
348.6 K	–	0.131	–
352.2 K	885.4	–	0.89
368.1 K	870.6	–	0.75
374 K	–	0.126	–
388.4 K	851	–	0.6
398 K	–	0.122	–
408.3 K	831.9	–	0.5
422.4 K	–	0.118	–
428.2 K	812.1	–	0.41
446.4 K	–	0.115	–
471.3 K	–	0.111	–

CCCCCCCCC(=O)O [nonanoic acid]
101.33 kPa
Conditions	mass density [kg/m3]	thermal conductivity [W/m/K]	viscosity [mPa·s]
290.3 K	906	–	–
292.3 K	–	–	8.2
296.3 K	–	0.15	–
308 K	893.8	–	5.25
322.6 K	–	0.144	–
323.1 K	881.9	–	3.66
338.1 K	870.1	–	2.7
352.9 K	–	0.139	–
353.1 K	858.4	–	2.07
368 K	846.7	–	1.63
381.3 K	–	0.133	–
383.1 K	834.1	–	–
383.3 K	–	–	1.31
398.1 K	822.3	–	1.08
412.2 K	–	0.126	–
413 K	810.3	–	0.9
427.9 K	798	–	0.76
441.4 K	–	0.121	–
471.6 K	–	0.115	–

CCCCCC(=O)O [hexanoic acid]
101.33 kPa
Conditions	mass density [kg/m3]	thermal conductivity [W/m/K]	viscosity [mPa·s]
294.5 K	926	–	–
294.6 K	–	–	3.07
296.9 K	–	0.143	–
312.1 K	910.5	–	2.15
325.7 K	–	0.138	–
332.1 K	893.1	–	1.52
347.4 K	–	0.134	–
352.1 K	875.8	–	1.14
368.1 K	861.7	–	0.94
374.7 K	–	0.128	–
388.4 K	843.5	–	0.73
398.1 K	–	0.124	–
408.3 K	825.3	–	0.6
422.3 K	–	0.12	–
428.3 K	806.5	–	0.49
445.6 K	–	0.116	–
471.2 K	–	0.113	–

CCCCCCCCCC(=O)O [decanoic acid]
101.33 kPa
Conditions	mass density [kg/m3]	thermal conductivity [W/m/K]	viscosity [mPa·s]
308 K	–	0.154	–
322.1 K	878	–	4.75
327.4 K	–	0.15	–
332.1 K	871	–	3.8
348.8 K	–	0.146	–
352.1 K	855.3	–	2.55
368.3 K	843.1	–	1.94
373.9 K	–	0.14	–
388.3 K	827.3	–	1.45
398.3 K	–	0.135	–
408.2 K	812.2	–	1.1
421.9 K	–	0.13	–
427.2 K	797.2	–	0.88
428.2 K	796.4	–	0.87
442.2 K	784.9	–	0.75
447.3 K	–	0.125	–
457.2 K	772.9	–	0.64
472.2 K	761.9	–	0.56
473.4 K	–	0.119	–

CCCCCCC(=O)O [heptanoic acid]
101.33 kPa
Conditions	mass density [kg/m3]	thermal conductivity [W/m/K]	viscosity [mPa·s]
290.3 K	920.6	–	4.63
296 K	–	0.144	–
308 K	905.7	–	3.06
314.4 K	–	0.14	–
323.1 K	893	–	2.3
332.4 K	–	0.137	–
338.1 K	880.4	–	1.74
352.6 K	–	0.133	–
353.1 K	867.8	–	1.39
367.1 K	855.4	–	1.13
372.2 K	–	0.13	–
382 K	–	0.127	–
383.2 K	842.3	–	0.94
391.9 K	–	0.124	–
397.9 K	829.4	–	0.79
412.4 K	–	0.121	–
412.9 K	816.6	–	0.68
427.7 K	803.4	–	0.59
441.7 K	–	0.116	–
471.4 K	–	0.11	–

Source: the NIST ThermoML archive (doi:10.1021/acs.jced.5b00971)
